Results on one compound are retold here after paper PMC7269146, “Jingzhaotoxin-X, a gating modifier of Kv4.2 and Kv4.3 potassium channels purified from the venom of the Chinese tarantula Chilobrachys jingzhao” (The Journal of Venomous Animals and Toxins Including …, 2020).

Assay [1] deals with T1, Kv4.2 (Rattus norvegicus, UniProt Q63881).
T1 construct: expressed in transfected cells; host or cells: HEK293t
T1 sequence (Q63881 1-630): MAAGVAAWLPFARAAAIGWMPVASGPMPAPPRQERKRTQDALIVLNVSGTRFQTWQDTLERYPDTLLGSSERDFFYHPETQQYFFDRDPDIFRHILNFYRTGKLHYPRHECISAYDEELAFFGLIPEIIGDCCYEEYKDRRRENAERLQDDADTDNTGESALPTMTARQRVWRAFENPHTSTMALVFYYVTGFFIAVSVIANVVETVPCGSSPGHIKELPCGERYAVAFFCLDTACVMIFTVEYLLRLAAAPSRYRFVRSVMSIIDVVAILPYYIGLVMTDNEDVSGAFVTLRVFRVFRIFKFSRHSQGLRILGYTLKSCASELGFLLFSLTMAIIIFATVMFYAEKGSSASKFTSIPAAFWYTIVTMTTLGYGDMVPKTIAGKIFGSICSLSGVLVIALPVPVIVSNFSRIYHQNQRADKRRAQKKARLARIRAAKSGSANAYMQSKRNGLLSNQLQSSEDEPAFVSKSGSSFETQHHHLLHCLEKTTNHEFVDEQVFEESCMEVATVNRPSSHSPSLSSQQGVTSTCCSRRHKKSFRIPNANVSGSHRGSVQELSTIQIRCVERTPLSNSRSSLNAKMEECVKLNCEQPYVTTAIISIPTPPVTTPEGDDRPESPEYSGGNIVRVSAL
As to the kind of experiment: current-voltage relationship / activation, Kv4.2. In kind it is cell-based. An excerpt:
(§1) Rat cDNA genes encoding Kv4.2 (Accession: NM_031730.2) and Kv4.3 (Accession: AB003587.1) were subcloned to vector pcDNA3.1. In addition, human cDNA genes encoding Nav1.7 (Accession: DQ857292.1) and Nav1.5 (Accession: AB158469.2) were subcloned to vectors pcDNA3.1-mod and pcDNA3.1, separately. Then, Kv4.2, Kv4.3, Nav1.5 and Nav1.7 constructs were transiently transfected into the human embryonic kidney 293t (HEK293t) cells using lipofectamine 2000 (Invitrogen, USA) in accordance with manufacturer protocols. Thereafter, HEK293 cells were inoculated within Dulbecco’s modified Eagle’s medium (DMEM) containing 10% fetal bovine serum (FBS) at 5% CO2 and 37°C. The Kv4.3 channel and the Kv4.2 counterpart were then transfected in the absence of β subunit. Subsequently, cells were incubated with a DNA-lipofectamine mixture (one reporter plasmid for green fluorescence protein and channel constructs) for 4-6 h, and were washed with the fresh medium.
(§2) An EPC-10 patch-clamp amplifier (HEKA, Germany) was employed to record the potassium currents at the configuration of whole-cell patch-clamp under an ambient temperature of 22-25°C. The resistance was 2.0-3.0 MΩ when the recording pipette contained a full volume of internal solution (supplemented with 140 mM KCl, 10 mM HEPES, 2.5 mM MgCl2, 5 mM ATP and 11 mM EGTA). KOH was utilized to adjust the pH to 7.2, while sucrose was employed to adjust the osmolarity to 310 mOsm/L. The culture medium was replaced with an external solution containing 150 mM NaCl, 2.5 mM CaCl2, 10 mM HEPES, 2 mM MgCl2, 5 mM KCl, and 10 mM D-glucose. Similarly, sucrose and NaOH were applied to adjust the osmolarity to 330 mOsm/L and pH to 7.4. […] The series resistance was maintained at about 5 MΩ, with 65-70% compensation. Finally, the leakage currents and linear capacitance were subtracted digitally according to the P/4 protocol.
The voltage-dependent inhibition of Kv4.2 and Kv4.3 channels by JZTX-X was determined by the depolarizing pulses to potentials in 10 mV steps from −80 to +60 mV at an interval of 10 s and the holding potential of -80 mV. […] For quantifying the voltage-depending inhibition of Kv4.2 and Kv4.3 channels, the relative current was drawn based on the membrane potential. Under control conditions, those threshold potentials to initially activate Kv4.2 and Kv4.3 currents were around -40 mV. The JZTX-X treatment at 500 nM inhibited the Kv4.2 and Kv4.3 currents, and then the I-V relation shifted to the right by about 30 mV (from -39.5 ± 1.9 mV to -11.3 ± 1.2 mV ) and 40 mV (from -39.8 ± 1.5 mV to -2.5 ± 0.9 mV ), separately (Fig. 5C and D). Additionally, the channel conductance also shifted rightward by around 30 mV (data not shown).
Figure 5. Effects of JZTX-X on I-V relationships in Kv4.2 and Kv4.3 channels: Each cell was held at the voltage of -80 mV, and the […] current families were induced at the depolarization steps of 300 ms to different potentials (range, -80 mV to +60 mV at 10 mV increments). […] ( C ) and ( D ) represented I-V relation for Kv4.2 (C) and Kv4.3 (D) currents before (filled circles) and after 100 nM (open circles) or 500 nM (filled inverted triangles) JZTX-X treatment, respectively. ( E ) and ( F ) represented the fractional suppression on Kv4.2 (E) and Kv4.3 (F) currents after 100 nM (filled circles) and 500 nM (open circles) JZTX-X treatment, respectively. All data were expressed as mean ± S.E.M (n = 5-7 cells).

Assay [2] has as its target T1, Kv4.2. As to the kind of experiment: kinetic constants of JZTX-X at Kv4.2 channel (wash-in / wash-out). The class given is cell-based. Particulars: test conc. 0.2 μM, n = 6.
Description: as §1, §2
As for kinetic calculations, curves as a function of peak currents vs. time were plotted from the toxin wash-out or wash-in moments. The software Sigmaplot 9.0 (Sigma, USA) was utilized to fit data to the first-order exponential equation. […]

The test system of the next assay is Nav1.5. Kind of assay: voltage-clamp, Nav1.5 currents. Particulars: 1 μM; n = 3. In kind it is cell-based, human.
Description: as §1
An EPC-10 patch-clamp amplifier (HEKA, Germany) was employed to record the potassium currents at the configuration of whole-cell patch-clamp under an ambient temperature of 22-25°C. The resistance was 2.0-3.0 MΩ when the recording pipette contained a full volume of internal solution (supplemented with 140 mM KCl, 10 mM HEPES, 2.5 mM MgCl2, 5 mM ATP and 11 mM EGTA). […]

“Also recorded” adds a separate entry of the source. Where a SMILES comes first, the peptide text is derived from it. Bridges are numbered along the chain shown (N, C = ends).

For `CC(C)C[C@@H]1NC(=O)[C@H](CCCCN)NC(=O)[C@H](Cc2ccc(O)cc2)NC(=O)[C@@H]2CSSC[C@@H]3NC(=O)[C@H](Cc4ccc(O)cc4)NC(=O)[C@H](Cc4ccccc4)NC(=O)CNC(=O)[C@H](C)NC(=O)[C@H](CSSC[C@H](NC(=O)[C@@H](N)CC(C)C)C(=O)N[C@@H](CO)C(=O)N[C@@H](CCCNC(=N)N)C(=O)N[C@@H](CCC(=O)O)C(=O)NCC(=O)N[C@@H](CCC(=O)O)C(=O)N[C@@H](Cc4ccccc4)C(=O)N2)NC(=O)[C@H](CSSC[C@@H](C(=O)N[C@@H](Cc2ccc(O)cc2)C(=O)N[C@@H](CCCNC(=N)N)C(=O)N[C@@H](CC(N)=O)C(=O)O)NC(=O)[C@H](Cc2c[nH]cn2)NC(=O)[C@H](CC(C)C)NC(=O)[C@H](C(C)C)NC(=O)[C@H](Cc2ccccc2)NC(=O)[C@H](C)NC(=O)[C@H](CCCCN)NC3=O)NC(=O)[C@H](CCCCN)NC(=O)[C@H](CCCNC(=N)N)NC1=O` [JZTX-X, Jingzhaotoxin-X] (H-LCSREGEFCYKLRKCCAGFYCKAFVLHCYRN-OH; disulfide 2-16, 9-21, 15-28; N-terminus assumed), the “reduction of Kv4.2 currents over voltage range” value on Kv4.2 [1] (100 nM, -80 to +60 mV in 10 mV steps) is “reduced the currents of Kv4.2 channels throughout the whole voltage range”. Also, the “I-V relation potential after toxin, Kv4.2” value at Kv4.2 [1] (500 nM, control -39.5 ± 1.9 mV, holding -80 mV, n = 5-7 cells) was -11.3 ± 1.2 mV. In addition, the “rightward shift of I-V relation, Kv4.2” value at Kv4.2 [1] (500 nM, holding -80 mV) is “about 30 mV”. For the same compound, on Kv4.2 [1] (data not shown, channel not named separately), the “rightward shift of channel conductance, Kv4.2” value is reported as “about 30 mV”. Further, the “voltage dependence of Kv4.2 inhibition” value at Kv4.2 [1] (test potentials -10 to +60 mV, 100 nM and 500 nM) was “dependent on voltage”. Besides, the “kmod, Kv4.2 channel” value at Kv4.2 [2] (inverse of τ of toxin wash-in) worked out at 0.089 ± 0.007 s⁻¹. This compound also yielded a koff at Kv4.2 [2] (inverse of τ of toxin wash-out) of 0.008 ± 0.0006 s⁻¹. Also, on Kv4.2 [2] (method text: Kd = koff / kon, read-out: ki, Kv4.2 channel), the Kd (kinetic dissociation constant) is 95 ± 30 nM. Also, in the assay with Nav1.5, the “effect on Nav1.5 channel” value is on record as “negligible effect; also recorded: did not affect the currents”.

As usually defined, the koff is a measure of how fast the partners let go of each other. A higher koff goes with fast dissociation.
